{
  "source": "ChEMBL document CHEMBL1212831",
  "about": "“Discovery of N-[(2S)-5-(6-fluoro-3-pyridinyl)-2,3-dihydro-1H-inden-2-yl]-2-propanesulfonamide, a novel clinical AMPA receptor positive modulator” (J Med Chem, 2010)",
  "key": {"Rattus norvegicus [1]": {"tested_on": "Rattus norvegicus", "assay": "Cognitive enhancing effect in po dosed Lister Hooded rat assessed as reversal of 24 hrs delay-induced retention deficit behavior by novel object recognition assay", "type": "functional", "details": "read-out: MED"}, "Cytochrome P450 2C19": {"molecular_target": "Cytochrome P450 2C19 (Homo sapiens, UniProt P33261)", "sequence (P33261 whole entry)": "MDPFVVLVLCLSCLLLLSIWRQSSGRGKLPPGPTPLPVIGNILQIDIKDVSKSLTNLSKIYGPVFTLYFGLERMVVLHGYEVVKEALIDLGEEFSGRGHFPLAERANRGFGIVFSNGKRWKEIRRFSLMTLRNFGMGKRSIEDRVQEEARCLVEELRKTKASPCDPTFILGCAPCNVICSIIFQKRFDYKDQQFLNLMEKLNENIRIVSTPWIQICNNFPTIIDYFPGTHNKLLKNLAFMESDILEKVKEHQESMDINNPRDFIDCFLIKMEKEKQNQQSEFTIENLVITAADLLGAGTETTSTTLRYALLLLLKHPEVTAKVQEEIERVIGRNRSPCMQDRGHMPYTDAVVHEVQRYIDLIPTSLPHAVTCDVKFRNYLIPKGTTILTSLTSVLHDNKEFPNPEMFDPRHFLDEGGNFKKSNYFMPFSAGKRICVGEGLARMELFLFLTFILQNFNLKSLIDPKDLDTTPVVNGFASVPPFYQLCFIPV", "description": "Inhibition of human CYP2C19 after 10 mins"}, "[2]": {"assay": "Cmax in Sprague-Dawley rat at 3 mg/kg, po", "type": "ADME, organism-based", "design": "dose 3 mg/kg, route oral", "details": "in vivo"}, "Rattus norvegicus [3]": {"tested_on": "Rattus norvegicus", "assay": "Antiamnesic activity in po dosed assessed as inhibition of amnesic deficit by step-down passive avoidance test", "type": "functional, organism-based", "details": "Wistar"}, "[4]": {"assay": "Tmax in Sprague-Dawley rat at 3 mg/kg, po", "type": "ADME, organism-based", "design": "dose 3 mg/kg, route oral", "details": "in vivo"}, "Cytochrome P450 2D6": {"molecular_target": "Cytochrome P450 2D6 (Homo sapiens, UniProt P10635)", "sequence (P10635 whole entry)": "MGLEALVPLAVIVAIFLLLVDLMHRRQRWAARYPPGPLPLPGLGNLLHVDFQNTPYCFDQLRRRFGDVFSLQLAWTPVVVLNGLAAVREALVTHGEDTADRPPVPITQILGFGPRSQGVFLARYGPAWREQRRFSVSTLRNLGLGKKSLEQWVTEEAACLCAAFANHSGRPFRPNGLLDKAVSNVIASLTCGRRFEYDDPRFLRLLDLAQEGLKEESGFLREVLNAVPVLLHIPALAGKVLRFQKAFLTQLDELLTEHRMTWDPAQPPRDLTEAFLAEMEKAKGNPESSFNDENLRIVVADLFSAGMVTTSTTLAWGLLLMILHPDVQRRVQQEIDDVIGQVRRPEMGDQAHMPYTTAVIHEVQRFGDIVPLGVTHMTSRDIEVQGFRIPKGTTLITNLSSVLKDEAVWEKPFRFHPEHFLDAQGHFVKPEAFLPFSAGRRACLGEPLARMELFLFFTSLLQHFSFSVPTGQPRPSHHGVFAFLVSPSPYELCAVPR", "description": "Inhibition of human CYP2D6 after 10 mins"}, "[5]": {"assay": "Half life in Sprague-Dawley rat at 1 mg/kg, iv and 3 mg/kg, po", "type": "ADME, organism-based", "details": "in vivo"}, "[6]": {"assay": "Equilibrium solubility of the compound in simulated gastric fluid at pH 2 to 10", "type": "physicochemical"}, "[7]": {"assay": "Plasma protein binding in rat at 1 ug/ml after 6 hrs by equilibrium dialysis method", "type": "ADME, cell-free", "details": "read-out: PPB (converted)"}, "[8]": {"molecular_target": "Voltage-gated inwardly rectifying potassium channel KCNH2 (Homo sapiens, UniProt Q12809)", "sequence (Q12809 whole entry)": "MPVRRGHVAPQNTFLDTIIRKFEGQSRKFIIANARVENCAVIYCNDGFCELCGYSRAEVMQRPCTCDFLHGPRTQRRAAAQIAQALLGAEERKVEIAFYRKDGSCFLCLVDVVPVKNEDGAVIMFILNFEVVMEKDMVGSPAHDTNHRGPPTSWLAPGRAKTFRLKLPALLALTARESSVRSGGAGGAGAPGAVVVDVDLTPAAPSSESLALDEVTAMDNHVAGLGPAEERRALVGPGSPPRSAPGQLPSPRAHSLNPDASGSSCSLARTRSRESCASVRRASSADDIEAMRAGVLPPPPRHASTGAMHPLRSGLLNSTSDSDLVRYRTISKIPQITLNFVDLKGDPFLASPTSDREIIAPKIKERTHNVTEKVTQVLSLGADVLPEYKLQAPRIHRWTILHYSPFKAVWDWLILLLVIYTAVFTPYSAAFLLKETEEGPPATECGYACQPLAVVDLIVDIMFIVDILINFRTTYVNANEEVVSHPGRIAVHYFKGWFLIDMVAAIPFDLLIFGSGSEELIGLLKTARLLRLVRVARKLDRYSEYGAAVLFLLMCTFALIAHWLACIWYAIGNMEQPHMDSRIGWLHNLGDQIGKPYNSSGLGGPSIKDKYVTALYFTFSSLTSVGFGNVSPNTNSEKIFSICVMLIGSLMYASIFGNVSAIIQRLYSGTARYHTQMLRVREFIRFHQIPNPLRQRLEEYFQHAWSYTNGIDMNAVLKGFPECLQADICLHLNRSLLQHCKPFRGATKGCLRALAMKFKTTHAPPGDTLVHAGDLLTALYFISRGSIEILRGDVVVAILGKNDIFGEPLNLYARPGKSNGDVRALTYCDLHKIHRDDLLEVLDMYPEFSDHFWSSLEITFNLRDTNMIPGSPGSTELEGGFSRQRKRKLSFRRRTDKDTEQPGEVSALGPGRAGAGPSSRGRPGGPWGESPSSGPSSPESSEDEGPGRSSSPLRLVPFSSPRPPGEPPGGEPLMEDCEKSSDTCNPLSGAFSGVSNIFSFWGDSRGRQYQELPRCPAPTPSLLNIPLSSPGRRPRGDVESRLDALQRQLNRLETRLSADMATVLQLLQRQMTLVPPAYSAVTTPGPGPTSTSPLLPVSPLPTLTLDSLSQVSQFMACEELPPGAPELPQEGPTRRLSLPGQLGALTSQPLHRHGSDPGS", "assay": "Inhibition of human ERG"}, "Homo sapiens": {"tested_on": "Homo sapiens", "assay": "Toxicity in human at 0.1 mg/kg QD for 28 days", "type": "organism-based", "design": "dose 0.1 mg/kg", "details": "in vivo, 672 h"}, "Rattus norvegicus [9]": {"tested_on": "Rattus norvegicus", "assay": "Liver blood flow in Sprague-Dawley rat at 1 mg/kg, iv and 3 mg/kg, po", "type": "ADME, organism-based", "details": "in vivo"}, "[10]": {"assay": "Blood clearance in Sprague-Dawley rat at 1 mg/kg, iv and 3 mg/kg, po", "type": "ADME, organism-based"}, "[11]": {"assay": "Equilibrium solubility of the compound in fasted simulated intestinal fluid at pH 2 to 10", "type": "physicochemical"}, "[12]": {"assay": "Half life in Beagle dog at 0.125 mg/kg, iv", "type": "ADME, organism-based, Canis lupus familiaris", "design": "dose 0.125 mg/kg, route intravenous", "details": "in vivo"}, "[13]": {"assay": "Plasma protein binding in human at 1 ug/ml after 6 hrs by equilibrium dialysis method", "type": "ADME, cell-free", "details": "read-out: PPB (converted)"}, "[14]": {"assay": "Tmax in cynomolgus monkey at 0.5 mg/kg, po", "type": "ADME, organism-based, Macaca fascicularis", "design": "dose 0.5 mg/kg, route oral", "details": "in vivo"}, "Rattus norvegicus [15]": {"tested_on": "Rattus norvegicus", "assay": "Antiamnesic activity in po dosed assessed as inhibition of Scopolamine-induced amnesic deficit administered 3 hrs before Scopolamine challenge by step-down passive avoidance test", "type": "functional, organism-based", "details": "Wistar"}, "[16]": {"assay": "Apparent half life in human", "type": "ADME, organism-based", "details": "in vivo, read-out: beta t1/2 (converted)"}, "[17]": {"assay": "Half life in Beagle dog at 0.5 mg/kg, po", "type": "ADME, organism-based, Canis lupus familiaris", "design": "dose 0.5 mg/kg, route oral", "details": "in vivo"}, "[18]": {"molecular_target": "T1, Nuclear receptor subfamily 1 group I member 2 (Rattus norvegicus, UniProt Q9R1A7)", "T1 sequence (Q9R1A7 whole entry)": "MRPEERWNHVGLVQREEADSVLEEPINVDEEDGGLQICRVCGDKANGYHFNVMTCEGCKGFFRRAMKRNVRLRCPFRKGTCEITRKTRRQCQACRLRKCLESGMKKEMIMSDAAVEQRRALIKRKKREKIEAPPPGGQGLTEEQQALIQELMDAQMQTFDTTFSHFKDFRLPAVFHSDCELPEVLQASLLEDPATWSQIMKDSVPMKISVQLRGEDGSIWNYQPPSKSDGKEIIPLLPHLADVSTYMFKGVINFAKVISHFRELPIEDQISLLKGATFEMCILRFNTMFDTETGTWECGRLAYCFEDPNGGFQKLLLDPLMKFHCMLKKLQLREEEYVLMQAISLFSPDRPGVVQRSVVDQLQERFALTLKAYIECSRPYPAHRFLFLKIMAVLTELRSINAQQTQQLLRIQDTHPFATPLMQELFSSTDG", "assay": "Activation of rat PXR"}, "[19]": {"assay": "Tmax in Beagle dog at 0.5 mg/kg, po", "type": "ADME, organism-based, Canis lupus familiaris", "design": "dose 0.5 mg/kg, route oral", "details": "in vivo"}, "[20]": {"assay": "Volume of distribution at steady state in Sprague-Dawley rat at 1 mg/kg, iv and 3 mg/kg, po", "type": "ADME, organism-based", "details": "in vivo, read-out: Vdss"}, "Glutamate receptor 2": {"molecular_target": "Glutamate receptor 2 (Homo sapiens, UniProt P42262)", "sequence (P42262 whole entry, canonical isoform)": "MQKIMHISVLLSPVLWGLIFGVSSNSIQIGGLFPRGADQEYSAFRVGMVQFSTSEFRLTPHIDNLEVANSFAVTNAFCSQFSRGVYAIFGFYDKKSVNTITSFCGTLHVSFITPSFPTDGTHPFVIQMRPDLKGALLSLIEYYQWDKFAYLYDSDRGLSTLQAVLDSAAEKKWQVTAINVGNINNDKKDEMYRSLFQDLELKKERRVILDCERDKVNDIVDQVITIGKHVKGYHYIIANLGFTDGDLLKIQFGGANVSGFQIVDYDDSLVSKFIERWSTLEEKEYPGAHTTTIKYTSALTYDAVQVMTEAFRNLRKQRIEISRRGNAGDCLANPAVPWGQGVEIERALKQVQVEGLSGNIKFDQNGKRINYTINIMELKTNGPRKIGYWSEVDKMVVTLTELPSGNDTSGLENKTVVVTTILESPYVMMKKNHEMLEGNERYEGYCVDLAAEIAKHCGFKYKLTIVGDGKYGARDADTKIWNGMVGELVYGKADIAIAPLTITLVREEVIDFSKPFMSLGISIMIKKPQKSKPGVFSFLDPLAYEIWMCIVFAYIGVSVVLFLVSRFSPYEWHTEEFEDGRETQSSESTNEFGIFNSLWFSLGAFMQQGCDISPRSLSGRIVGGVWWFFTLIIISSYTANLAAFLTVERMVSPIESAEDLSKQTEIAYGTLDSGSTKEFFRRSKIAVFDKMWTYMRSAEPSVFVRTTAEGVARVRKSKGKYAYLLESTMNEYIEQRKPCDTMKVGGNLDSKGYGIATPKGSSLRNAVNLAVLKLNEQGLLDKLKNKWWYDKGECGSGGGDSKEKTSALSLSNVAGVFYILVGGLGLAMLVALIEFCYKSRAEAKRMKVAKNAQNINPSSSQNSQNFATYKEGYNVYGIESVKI", "assay": "Activation of human recombinant GluR2 flip isoform expressed in HEK293 cells assessed as increase of glutamate-induced inward current at 30 uM by whole cell voltage-clamp electrophysiology assay", "type": "cell-based"}, "[21]": {"assay": "Half life in Sprague-Dawley rat at 1 mg/kg, iv", "type": "ADME, organism-based", "design": "dose 1 mg/kg, route intravenous", "details": "in vivo"}, "[22]": {"assay": "Half life in Sprague-Dawley rat at 3 mg/kg, po", "type": "ADME, organism-based", "design": "dose 3 mg/kg, route oral", "details": "in vivo"}, "[23]": {"assay": "Plasma protein binding in mouse at 1 ug/ml after 6 hrs by equilibrium dialysis method", "type": "ADME, cell-free", "details": "read-out: PPB (converted)"}, "Cytochrome P450 1A2": {"molecular_target": "T2, Cytochrome P450 1A2 (Homo sapiens, UniProt P05177)", "T2 sequence (P05177 whole entry)": "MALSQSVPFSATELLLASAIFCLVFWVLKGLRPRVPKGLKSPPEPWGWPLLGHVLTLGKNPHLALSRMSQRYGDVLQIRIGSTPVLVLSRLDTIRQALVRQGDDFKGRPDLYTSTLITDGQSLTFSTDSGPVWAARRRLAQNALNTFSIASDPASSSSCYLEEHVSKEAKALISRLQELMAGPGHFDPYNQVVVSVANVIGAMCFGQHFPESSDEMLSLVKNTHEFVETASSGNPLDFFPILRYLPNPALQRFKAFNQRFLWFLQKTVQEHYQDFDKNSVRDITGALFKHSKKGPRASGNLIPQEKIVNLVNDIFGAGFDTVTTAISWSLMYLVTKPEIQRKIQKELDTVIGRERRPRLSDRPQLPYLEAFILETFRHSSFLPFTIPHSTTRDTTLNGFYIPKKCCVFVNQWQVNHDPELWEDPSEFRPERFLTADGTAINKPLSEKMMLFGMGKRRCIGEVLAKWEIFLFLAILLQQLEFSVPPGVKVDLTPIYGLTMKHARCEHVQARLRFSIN", "description": "Inhibition of human CYP1A2 after 10 mins"}, "[24]": {"assay": "Half life in cynomolgus monkey at 0.125 mg/kg, iv", "type": "ADME, organism-based, Macaca fascicularis", "design": "dose 0.125 mg/kg, route intravenous", "details": "in vivo"}, "[25]": {"assay": "Blood clearance in Beagle dog at 0.125 mg/kg, iv and 0.5 mg/kg, po", "type": "ADME, organism-based, Canis lupus familiaris"}, "Brain [26]": {"tested_on": "Brain", "assay": "Brain tissue binding in rat at 1 ug/ml after 6 hrs by equilibrium dialysis method", "type": "ADME, tissue-based"}, "[27]": {"assay": "Oral bioavailability in Sprague-Dawley rat at 3 mg/kg", "type": "ADME, organism-based", "details": "in vivo"}, "[28]": {"assay": "Equilibrium solubility of the compound in water at pH 2 to 10", "type": "physicochemical"}, "[29]": {"assay": "Oral bioavailability in Beagle dog at 0.5 mg/kg", "type": "ADME, organism-based, Canis lupus familiaris", "details": "in vivo"}, "[30]": {"assay": "Equilibrium solubility of the compound in fed simulated intestinal fluid at pH 2 to 10", "type": "physicochemical"}, "Cytochrome P450 2C9": {"molecular_target": "Cytochrome P450 2C9 (Homo sapiens, UniProt P11712)", "sequence (P11712 whole entry)": "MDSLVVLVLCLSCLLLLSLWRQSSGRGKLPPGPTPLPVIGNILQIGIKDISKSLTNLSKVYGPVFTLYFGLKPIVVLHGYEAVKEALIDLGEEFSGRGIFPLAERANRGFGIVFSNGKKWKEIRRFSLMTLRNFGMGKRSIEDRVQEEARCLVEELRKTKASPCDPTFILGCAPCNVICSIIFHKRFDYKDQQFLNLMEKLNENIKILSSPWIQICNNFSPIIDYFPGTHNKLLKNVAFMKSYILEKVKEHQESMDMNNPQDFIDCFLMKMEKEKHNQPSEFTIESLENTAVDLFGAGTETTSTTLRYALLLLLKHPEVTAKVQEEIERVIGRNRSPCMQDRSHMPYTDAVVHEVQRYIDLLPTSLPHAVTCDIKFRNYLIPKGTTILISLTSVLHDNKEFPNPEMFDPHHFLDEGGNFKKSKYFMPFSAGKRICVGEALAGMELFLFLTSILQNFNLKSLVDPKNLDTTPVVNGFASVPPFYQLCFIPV", "description": "Inhibition of human CYP2C9 after 10 mins"}, "in vivo": {"assay": "in vivo", "details": "rat, brain/blood", "description": "Ratio of brain AUC (0 to t) to blood AUC (0 to t) in rat"}, "[31]": {"assay": "Cmax in Beagle dog at 0.5 mg/kg, po", "type": "ADME, organism-based, Canis lupus familiaris", "design": "dose 0.5 mg/kg, route oral", "details": "in vivo"}, "[32]": {"assay": "Chemical stability of the compound", "type": "physicochemical"}, "[33]": {"assay": "Plasma protein binding in monkey at 1 ug/ml after 6 hrs by equilibrium dialysis method", "type": "ADME, cell-free, Macaca mulatta", "details": "rhesus monkey, read-out: PPB (converted)"}, "Brain [34]": {"tested_on": "Brain", "assay": "Drug level in po dosed Lister Hooded rat brain assessed per gram of tissue", "type": "ADME, organism-based", "details": "in vivo"}},
  "note": "Active and inactive are the calls of the source. The rule behind the calls is not given here.",
  "data": [
    {"smiles": "CC(C)S(=O)(=O)N[C@H]1Cc2ccc(-c3ccc(F)nc3)cc2C1", "note": "[GSK-729327]", "values": [
      {"measurement": "minimal effective dose", "setting": "Rattus norvegicus [1]", "value": 0.3, "unit": "mg/kg"},
      {"measurement": "IC50", "setting": "Cytochrome P450 2C19", "value": "> 10", "unit": "µM"},
      {"measurement": "Cmax", "setting": "[2]", "value": 416, "unit": "ng/mL"},
      {"measurement": "inhibition", "setting": "Rattus norvegicus [3]", "value": "inactive"},
      {"measurement": "Tmax", "setting": "[4]", "value": 3, "unit": "h"},
      {"measurement": "IC50", "setting": "Cytochrome P450 2D6", "value": "> 10", "unit": "µM"},
      {"measurement": "half-life", "setting": "[5]", "value": 5, "unit": "h"},
      {"measurement": "solubility thermodynamic", "setting": "[6]", "value": 100, "unit": "µg/mL"},
      {"measurement": "fraction unbound at 6 h, 1 ug/ml", "setting": "[7]", "value": 0.133},
      {"measurement": "inhibition (INH)", "setting": "[8]", "value": "Not Active"},
      {"measurement": "Activity", "setting": "Homo sapiens", "value": "Non-toxic"},
      {"measurement": "LBF", "setting": "Rattus norvegicus [9]", "value": 6, "unit": "%"},
      {"measurement": "clearance", "setting": "[10]", "value": 5.4, "unit": "mL/min/kg"},
      {"measurement": "solubility thermodynamic", "setting": "[11]", "value": 100, "unit": "µg/mL"},
      {"measurement": "half-life", "setting": "[12]", "value": 16, "unit": "h"},
      {"measurement": "fraction unbound at 6 h, 1 ug/ml", "setting": "[13]", "value": 0.092},
      {"measurement": "Tmax", "setting": "[14]", "value": 6, "unit": "h"},
      {"measurement": "Activity", "setting": "Rattus norvegicus [15]", "value": "Dose-dependent effect"},
      {"measurement": "half-life", "setting": "[16]", "value": 107, "unit": "h"},
      {"measurement": "half-life", "setting": "[17]", "value": 17, "unit": "h"},
      {"measurement": "Activity", "setting": "[18]", "value": "Not Active"},
      {"measurement": "Tmax", "setting": "[19]", "value": 2, "unit": "h"},
      {"measurement": "Vd", "setting": "[20]", "value": 2.4, "unit": "L/kg"},
      {"measurement": "Activity", "setting": "Glutamate receptor 2", "value": "Active"},
      {"measurement": "half-life", "setting": "[21]", "value": 5, "unit": "h"},
      {"measurement": "half-life", "setting": "[22]", "value": 6.6, "unit": "h"},
      {"measurement": "fraction unbound at 6 h, 1 ug/ml", "setting": "[23]", "value": 0.15},
      {"measurement": "IC50", "setting": "Cytochrome P450 1A2", "value": "> 10", "unit": "µM"},
      {"measurement": "half-life", "setting": "[24]", "value": 15, "unit": "h"},
      {"measurement": "clearance", "setting": "[25]", "value": 3.4, "unit": "mL/min/kg"},
      {"measurement": "Activity", "setting": "Brain [26]", "value": 97.4, "unit": "%"},
      {"measurement": "bioavailability", "setting": "[27]", "value": 61, "unit": "%"},
      {"measurement": "solubility thermodynamic", "setting": "[28]", "value": 100, "unit": "µg/mL"},
      {"measurement": "bioavailability", "setting": "[29]", "value": 61, "unit": "%"},
      {"measurement": "solubility thermodynamic", "setting": "[30]", "value": 100, "unit": "µg/mL"},
      {"measurement": "IC50", "setting": "Cytochrome P450 2C9", "value": "> 10", "unit": "µM"},
      {"measurement": "Kp", "setting": "in vivo", "value": 2.1},
      {"measurement": "IC50", "setting": "Liver microsomes", "value": 0.7, "unit": "µM"},
      {"measurement": "Cmax", "setting": "[31]", "value": 116, "unit": "ng/mL"},
      {"measurement": "Stability", "setting": "[32]", "value": "Stable"},
      {"measurement": "fraction unbound at 6 h, 1 ug/ml", "setting": "[33]", "value": 0.152},
      {"measurement": "Drug uptake", "setting": "Brain [34]", "value": 122, "unit": "ng/g"}
    ]}
  ]
}
